What was measured:
[1] = target: T1, plasma kallikrein (Homo sapiens, UniProt P03952); experiment: Neat human plasma assay (fluorogenic peptide), contact pathway-activated plasma; format: biochemical; conditions: sodium citrate human plasma (78% final), 10 nM human FXIIa, 100 μM PFR-AMC, room temperature
T1 construct: added to sodium citrate collected human or rat plasma in a 96-well microplate; from tissue
Method: To analyze inhibition of plasma kallikrein in an ex vivo setting, the potency of compounds was measure in contact pathway-activated plasma assays. In a fluorogenic peptide substrate assay, test compounds dissolved in DMSO were added to sodium citrate collected human or rat plasma in a 96-well microplate. Alternatively, citrated plasma was collected from rats administered the compounds orally or by IV. 10 nM of human FXIIa (Enzyme Research Laboratories) diluted in PKa buffer (20 mM Tris-HCl, pH 7.5, 150 mM NaCl, 1 mM EDTA, 0.1% PEG-8000, and 0.1% Triton X-100) was added to the plasma, followed by the 100 μM of the profluorescent, synthetic plasma kallikrein substrate PFR-AMC (also diluted in PKa buffer). Final plasma concentration in the reaction was 78%. Fluorescence was immediately monitored by excitation/emission wavelengths of 360 nm/480 nm respectively over a period of 5 minutes in a microplate reader. The resulting linear increase in fluorescence emission (reflecting PKa proteolysis of PFR-AMC substrate) was fit to extract a proteolytic rate (fluorescent units over time), and this rate was subsequently plotted against compound inhibitor concentration. Resulting plots were fit to a standard 4-parameter IC50/IC90 equation to determine min/max values, IC50/90, and slope. All experimental steps were performed at room temperature.

[2] = target: human activated kallikrein enzyme (Homo sapiens, UniProt P03952); experiment: Inhibition of human activated kallikrein enzyme, fluorogenic peptide substrate assay (500 pM enzyme format); format: biochemical; conditions: 500 pM activated kallikrein, 300 μM PFR-AMC substrate, 30 min preincubation, 10 min reaction, room temperature; read-out: Primary Dose Response Assay: Average EC50
Sequence of human activated kallikrein enzyme (P03952 391-638 limits assumed): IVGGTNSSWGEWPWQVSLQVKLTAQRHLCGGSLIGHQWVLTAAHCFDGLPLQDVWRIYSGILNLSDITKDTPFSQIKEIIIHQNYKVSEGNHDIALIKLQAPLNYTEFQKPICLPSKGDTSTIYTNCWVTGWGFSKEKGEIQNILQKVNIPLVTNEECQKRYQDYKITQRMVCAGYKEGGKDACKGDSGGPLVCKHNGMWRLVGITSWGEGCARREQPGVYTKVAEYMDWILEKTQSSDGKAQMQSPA
Sequence of human activated kallikrein enzyme (P03952 20-390 partner limits assumed): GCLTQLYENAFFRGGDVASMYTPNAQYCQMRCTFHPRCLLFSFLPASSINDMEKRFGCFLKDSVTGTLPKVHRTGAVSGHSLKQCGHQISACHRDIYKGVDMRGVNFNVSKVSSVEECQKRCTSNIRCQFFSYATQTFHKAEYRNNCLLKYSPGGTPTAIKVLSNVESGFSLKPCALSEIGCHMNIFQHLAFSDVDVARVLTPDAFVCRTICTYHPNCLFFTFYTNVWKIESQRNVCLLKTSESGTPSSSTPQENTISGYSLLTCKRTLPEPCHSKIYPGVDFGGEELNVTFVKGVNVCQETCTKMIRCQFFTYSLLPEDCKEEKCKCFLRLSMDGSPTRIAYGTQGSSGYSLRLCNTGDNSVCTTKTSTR
Procedure, shortened: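 500 pM enzyme preincubated 30 min at room temperature with inhibitor in 20 mM Tris pH 7.5, 150 mM NaCl, 1 mM EDTA, 0.1% PEG-400, 0.1% Triton X-100. Reaction started with 300 μM PFR-AMC and run 10 min at room temperature. AMC fluorescence read at ex 380/em 460 nm, and EC50 values reported as ranges.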

T1 sequence (P03952 391-638 limits assumed): as the sequence (P03952 391-638 limits assumed) above
T1 sequence (P03952 20-390 partner limits assumed): as the sequence (P03952 20-390 partner limits assumed) above

SMILES	IC90 [1]	EC50 [2]
Cc1cc(N)nc(C)c1CNc1cc(OCc2cn3cc(C4CC4)cc(CO)c3n2)ncn1 [Example 113, (2-(((6-(((6-amino-2,4-dimethylpyridin-3-yl)methyl)amino)pyrimidin-4-yl)oxy)methyl)-6-cyclopropylimidazo[1,2-a]pyridin-8-yl)methanol]	5 to 25 µM	≤ 0.005 µM
Cc1cc(N)nc(C)c1CNc1cc(OCc2cn3cc(C4CC4)cc(C#N)c3n2)ncn1 [Example 112, 2-(((6-(((6-amino-2,4-dimethylpyridin-3-yl)methyl)amino)pyrimidin-4-yl)oxy)methyl)-6-cyclopropylimidazo[1,2-a]pyridine-8-carbonitrile]	0.5 to 5 µM	≤ 0.005 µM
Cc1cc(N)nc(C)c1CNc1cc(OCc2cn3cc(C4CC4)ccc3n2)ccn1 [Example 110, 5-(((4-((6-cyclopropylimidazo[1,2-a]pyridin-2-yl)methoxy)pyridin-2-yl)amino)methyl)-4,6-dimethylpyridin-2-amine]	5 to 25 µM	≤ 0.005 µM
O=C(Cc1ncn2ccc(Cl)cc12)Nc1cc(NCc2cn3cc(C4CC4)ccc3n2)cnn1 [Example 31, 2-(7-chloroimidazo[1,5-a]pyridin-1-yl)-N-(5-(((6-cyclopropylimidazo[1,2-a]pyridin-2-yl)methyl)amino)pyridazin-3-yl)acetamide]	0.5 to 5 µM	≤ 0.005 µM
Cc1cc(N)nc(C)c1CNc1cc(N2C[C@@H](O)C[C@@H]2c2cn3cc(C4CC4)ccc3n2)ncn1 [Example 135, (3S,5R)-1-(6-(((6-amino-2,4-dimethylpyridin-3-yl)methyl)amino)pyrimidin-4-yl)-5-(6-cyclopropylimidazo[1,2-a]pyridin-2-yl)pyrrolidin-3-ol]	≤ 0.5 µM	≤ 0.005 µM

Next, values leading:

IC90 [1]	EC50 [2]	SMILES
≤ 0.5 µM	≤ 0.005 µM	Cc1cc(N)nc(C)c1CNc1cc(OCc2cn3cc(C4CC4)cc(C4(F)COC4)c3n2)ncn1 [Example 109, N-((6-amino-2,4-dimethylpyridin-3-yl)methyl)-6-((6-cyclopropyl-8-(3-fluorooxetan-3-yl)imidazo[1,2-a]pyridin-2-yl)methoxy)pyrimidin-4-amine]
≤ 0.5 µM	≤ 0.005 µM	CN1CCN(c2cc(C3CC3)cn3cc(CNc4cc(NC(=O)Cc5ncn6ccc(Cl)cc56)ncn4)nc23)CC1 [Example 17, 2-(7-chloroimidazo[1,5-a]pyridin-1-yl)-N-(6-(((6-cyclopropyl-8-(4-methylpiperazin-1-yl)imidazo[1,2-a]pyridin-2-yl)methyl)amino)pyrimidin-4-yl)acetamide]
≤ 0.5 µM	≤ 0.005 µM	O=C(Cc1ncn2ccc(Cl)cc12)Nc1cc(NCc2cn3cc(C4CC4)cc(C4(O)COC4)c3n2)ncn1 [Example 14, 2-(7-chloroimidazo[1,5-a]pyridin-1-yl)-N-(6-(((6-cyclopropyl-8-(3-hydroxyoxetan-3-yl)imidazo[1,2-a]pyridin-2-yl)methyl)amino)pyrimidin-4-yl)acetamide]
0.5 to 5 µM	≤ 0.005 µM	O=C(Cc1ncn2ccc(Cl)cc12)Nc1cc(NCc2cn3cc(C4CC4)cc(N4CCCC4=O)c3n2)ncn1 [Example 12, 2-(7-chloroimidazo[1,5-a]pyridin-1-yl)-N-(6-(((6-cyclopropyl-8-(2-oxopyrrolidin-1-yl)imidazo[1,2-a]pyridin-2-yl)methyl)amino)pyrimidin-4-yl)acetamide]
5 to 25 µM	≤ 0.005 µM	O=C(Cc1n[nH]c2ccc(Cl)cc12)Nc1cc(NCc2cn3cc(C4CC4)ccc3n2)ccn1 [Example 26, 2-(5-chloro-1H-indazol-3-yl)-N-(4-(((6-cyclopropylimidazo[1,2-a]pyridin-2-yl)methyl)amino)pyridin-2-yl)acetamide]

— US20240382482A1, “PLASMA KALLIKREIN INHIBITORS” (TAKEDA PHARMACEUTICAL COMPANY LIMITED, priority 2021, published 2024)
